Measurements: article PMC2642990, “The Glycogen-Binding Domain on the AMPK β Subunit Allows the Kinase to Act as a Glycogen Sensor” (Cell Metabolism, 2009)

Legend:
[1] = molecular target: T1, recombinant AMPK complex (myc-α1:β1:γ1) (Rattus norvegicus, UniProt P80386); test: recombinant wild-type AMPK expressed in CCL13 cells, assayed in anti-myc immunoprecipitates; assay type: biochemical; settings: 2 mM; Figure 6C
T1 construct: recombinant AMPK complex (myc-α1:β1:γ1) containing full-length (1–270) or truncated β1 subunit lacking the GBD (172–270); made in house; host or cells: human CCL13 cells, co-transfected; isolated by anti-myc immunoprecipitation
Excerpt: Figure 2 Allosteric Inhibition of AMPK by Different Glycogen Preparations (A) Concentration dependence of inhibition of native rat liver AMPK by preparations of bovine and rat liver glycogen; glycogen concentrations expressed as glucose produced after total hydrolysis. Data were fitted to an IC50 equation (see Supplemental Experimental Procedures), and curves were generated using the estimated best-fit parameters. (B) Concentration dependence of inhibition of native rat liver AMPK by bovine liver glycogen in the presence and absence of 200 μM AMP; curves were generated as in (A). (C) Inhibition by bovine liver glycogen of recombinant AMPK complex (myc-α1:β1:γ1) containing full-length (1–270) or truncated β1 subunit lacking the GBD (172–270). Complexes were expressed in CCL13 cells and purified by immunoprecipitation prior to assay with or without glycogen (200 mM glucose equivalents). Data are means ± SEM (n = 3). ^∗Activity different from control without glycogen by t test (p < 0.05). […] Results are expressed as percentages of the activity in controls without glycogen, and data are mean ± SEM (n = 3). […]

native rat liver AMPK = native rat liver AMPK (Rattus norvegicus, UniProt P80386); test: AMPK kinase assay (SAMS peptide), native rat liver AMPK in solution; assay type: biochemical; settings: up to 100 mM
Method: We next tested the effect of glycogen on the activity of the native AMPK complex purified from rat liver ([Hawley et al., 1996]). […] The bovine liver glycogen inhibited AMPK completely with an IC50 (concentration causing half-maximal inhibition) of 30 ± 9 mM glucose equivalents (Figure 2A).
Figure 2 Allosteric Inhibition of AMPK by Different Glycogen Preparations (A) Concentration dependence of inhibition of native rat liver AMPK by preparations of bovine and rat liver glycogen; glycogen concentrations expressed as glucose produced after total hydrolysis. Data were fitted to an IC50 equation (see Supplemental Experimental Procedures), and curves were generated using the estimated best-fit parameters. (B) Concentration dependence of inhibition of native rat liver AMPK by bovine liver glycogen in the presence and absence of 200 μM AMP; curves were generated as in (A). (C) Inhibition by bovine liver glycogen of recombinant AMPK complex (myc-α1:β1:γ1) containing full-length (1–270) or truncated β1 subunit lacking the GBD (172–270). Complexes were expressed in CCL13 cells and purified by immunoprecipitation prior to assay with or without glycogen (200 mM glucose equivalents). Data are means ± SEM (n = 3). ^∗Activity different from control without glycogen by t test (p < 0.05). (D) Inhibition by bovine liver glycogen (200 mM glucose equivalents) of purified, native rat liver AMPK (a mixture of α1β1γ1 and α2β1γ1 complexes) that had been recovered by immunoprecipitation (IP) using anti-α1, anti-α2, or a mixture of anti-α1/-α2 antibodies or assayed in solution without immunoprecipitation. Results are expressed as percentages of the activity in controls without glycogen, and data are mean ± SEM (n = 3). (E) Absorption spectra of bovine and rat liver glycogen preparations in complex with iodine. […]
Purification of Native Rat Liver, AMPK, Recombinant AMPK, and AMPK Assays AMPK was purified from rat liver as far as the gel filtration step (Hawley et al., 1996). The kinase was assayed using the SAMS peptide (Davies et al., 1989). IC50 values for inhibition were estimated by fitting data using GraphPad Prism to the equation: Activity = Residual + Maximum - (Maximum × [Inhibitor]/(IC50+[Inhibitor])) where Residual is the activity in the presence of maximal inhibition, Maximum is the maximal inhibition and [inhibitor] is the concentration of the inhibitory molecule. For recombinant AMPK, constructs encoding myc-tagged α1, β1 and γ1 subunits of AMPK were co-transfected into CCL13 cells using modifications of previous methods (Woods et al., 1996). DNA (10 µg) was dissolved in sterile water (450 µl) to which 50 μl of 2.5 M CaCl2 was added, and the solution vortexed for 1 min. […]

GBD = molecular target: T2, GBD (Rattus norvegicus, UniProt P80386); test: binding of linear oligosaccharides to the GBD (data not shown)
T2 construct: The rat β1 GBD (residues 70-172 was cloned into pGEX6P2, expressed in Escherichia coli (BL21)); GST (N); made in house; host or cells: E. coli BL21 (inferred)
T2 sequence (P80386 70-172): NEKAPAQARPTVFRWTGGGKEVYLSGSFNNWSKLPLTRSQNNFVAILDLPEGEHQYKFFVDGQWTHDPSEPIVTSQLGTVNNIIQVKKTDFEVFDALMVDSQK

[2] = molecular target: bacterially expressed rat β1 GBD; parameters: method as in Koay et al. (2007); settings: NMR method; ref Koay et al. (2007); read-out: KD for binding to rat β1 GBD; cited from earlier work
rat β1 GBD = settings: cited from earlier work; for concentration that displaces the β1 GBD from glycogen: ref Polekhina et al. (2005)
[3] = molecular target: T3, recombinant α1β1γ1 complex with β1 GBD mutations (W100G/W133A and others) (Rattus norvegicus, UniProt P80386, W100G/W133A); test: recombinant AMPK with GBD point mutations in β1, assayed in immunoprecipitates; assay type: biochemical; settings: 2 mM; Figure 4B
T3 construct: we made mutations in full-length β1 coexpressed with α1 and γ1 in CCL13 cells; made in house; host or cells: human CCL13 cells, co-transfected; isolated by anti-myc immunoprecipitation
Excerpt: To test whether mutations that interfered with the binding of glycogen to the GBD also affected inhibition of AMPK by glycogen, we made mutations in full-length β1 coexpressed with α1 and γ1 in CCL13 cells, isolated the complex by immunoprecipitation via the myc tag on α1, and assayed the kinase activity in the presence and absence of glycogen. The activities were adjusted to correct for slight variation in recovery of the α1 subunit assessed by blotting (inset in Figure 3A). […] Because all of these assays were conducted in resuspended immunoprecipitates, the degree of inhibition of the wild-type was < 50%, as discussed in the previous section. […]
Figure 3 Effect of β Subunit Mutations on Inhibition of Recombinant AMPK Complexes by Glycogen (A) Myc-α1, γ1, and β1 with the wild-type sequence or the indicated mutations were expressed in CCL13 cells, immunoprecipitated, and assayed ± bovine liver glycogen (200 mM glucose equivalents); results are mean ± SEM (n = 3). […] (C) Myc-α1, γ1, and β1 with the wild-type sequence or with W100G/W133A mutations were expressed in CCL13 cells, immunoprecipitated using anti-myc (left) or anti-FLAG (right) antibodies, and analyzed by western blotting using anti-myc antibodies (top panels) or a mixture of anti-β1 and -γ1 antibodies (bottom panels). […]

Sequence of native rat liver AMPK (P80386 2-270): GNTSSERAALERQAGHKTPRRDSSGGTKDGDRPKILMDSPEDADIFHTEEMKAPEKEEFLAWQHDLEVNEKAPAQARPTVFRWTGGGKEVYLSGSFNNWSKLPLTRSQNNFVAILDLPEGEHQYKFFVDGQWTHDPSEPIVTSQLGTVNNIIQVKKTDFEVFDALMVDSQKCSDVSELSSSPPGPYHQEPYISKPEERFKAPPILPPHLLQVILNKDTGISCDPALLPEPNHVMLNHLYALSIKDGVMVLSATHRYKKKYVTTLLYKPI
Sequence of native rat liver AMPK (P54645 whole entry partner): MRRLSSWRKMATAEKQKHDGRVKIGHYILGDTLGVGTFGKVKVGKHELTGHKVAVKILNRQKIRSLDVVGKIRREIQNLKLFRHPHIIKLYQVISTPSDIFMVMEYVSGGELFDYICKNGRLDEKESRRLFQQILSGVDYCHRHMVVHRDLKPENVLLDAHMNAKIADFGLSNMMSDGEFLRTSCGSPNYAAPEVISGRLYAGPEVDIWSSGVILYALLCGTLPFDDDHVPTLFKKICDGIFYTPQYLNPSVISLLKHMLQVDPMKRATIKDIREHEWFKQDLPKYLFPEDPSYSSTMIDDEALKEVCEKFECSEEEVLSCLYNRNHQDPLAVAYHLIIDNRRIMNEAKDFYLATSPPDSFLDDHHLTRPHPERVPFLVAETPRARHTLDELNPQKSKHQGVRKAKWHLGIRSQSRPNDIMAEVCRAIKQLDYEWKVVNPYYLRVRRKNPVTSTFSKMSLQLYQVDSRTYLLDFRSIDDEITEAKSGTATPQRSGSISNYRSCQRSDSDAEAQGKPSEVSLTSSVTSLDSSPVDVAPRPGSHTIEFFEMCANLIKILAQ
Sequence of native rat liver AMPK (Q09137 whole entry partner): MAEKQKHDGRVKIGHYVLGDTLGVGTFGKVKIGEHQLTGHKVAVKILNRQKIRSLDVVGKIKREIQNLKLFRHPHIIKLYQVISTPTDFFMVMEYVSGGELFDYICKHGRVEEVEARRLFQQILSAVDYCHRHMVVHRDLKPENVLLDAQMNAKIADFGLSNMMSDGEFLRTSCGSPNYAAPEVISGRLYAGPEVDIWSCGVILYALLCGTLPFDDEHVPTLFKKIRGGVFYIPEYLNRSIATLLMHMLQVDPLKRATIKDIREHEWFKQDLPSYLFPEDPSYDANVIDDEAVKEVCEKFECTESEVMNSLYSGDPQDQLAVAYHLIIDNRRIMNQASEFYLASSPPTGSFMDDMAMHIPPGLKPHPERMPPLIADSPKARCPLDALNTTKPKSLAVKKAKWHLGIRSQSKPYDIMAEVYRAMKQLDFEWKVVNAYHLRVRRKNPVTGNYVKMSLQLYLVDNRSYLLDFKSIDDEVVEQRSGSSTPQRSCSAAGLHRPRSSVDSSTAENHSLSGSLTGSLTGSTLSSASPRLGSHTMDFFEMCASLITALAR
Sequence of native rat liver AMPK (P80385 whole entry partner): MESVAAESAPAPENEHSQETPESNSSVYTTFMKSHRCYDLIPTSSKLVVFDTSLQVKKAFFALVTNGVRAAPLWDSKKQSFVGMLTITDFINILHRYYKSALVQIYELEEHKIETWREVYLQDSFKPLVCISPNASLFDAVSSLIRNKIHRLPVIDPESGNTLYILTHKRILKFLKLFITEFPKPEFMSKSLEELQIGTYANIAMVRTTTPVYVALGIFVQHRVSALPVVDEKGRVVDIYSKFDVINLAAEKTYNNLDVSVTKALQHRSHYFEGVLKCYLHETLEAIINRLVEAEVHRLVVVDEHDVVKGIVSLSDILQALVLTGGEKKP
T1 sequence (P80386 whole entry, the tested form may be a part): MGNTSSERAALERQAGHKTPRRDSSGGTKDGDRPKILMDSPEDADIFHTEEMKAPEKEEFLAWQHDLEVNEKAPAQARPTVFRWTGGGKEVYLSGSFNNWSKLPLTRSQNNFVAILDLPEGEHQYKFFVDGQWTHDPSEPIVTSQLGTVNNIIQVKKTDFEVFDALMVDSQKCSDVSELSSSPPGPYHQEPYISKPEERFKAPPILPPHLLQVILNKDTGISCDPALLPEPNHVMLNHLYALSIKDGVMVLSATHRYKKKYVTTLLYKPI
T1 sequence (P54645 13-559 partner limits assumed): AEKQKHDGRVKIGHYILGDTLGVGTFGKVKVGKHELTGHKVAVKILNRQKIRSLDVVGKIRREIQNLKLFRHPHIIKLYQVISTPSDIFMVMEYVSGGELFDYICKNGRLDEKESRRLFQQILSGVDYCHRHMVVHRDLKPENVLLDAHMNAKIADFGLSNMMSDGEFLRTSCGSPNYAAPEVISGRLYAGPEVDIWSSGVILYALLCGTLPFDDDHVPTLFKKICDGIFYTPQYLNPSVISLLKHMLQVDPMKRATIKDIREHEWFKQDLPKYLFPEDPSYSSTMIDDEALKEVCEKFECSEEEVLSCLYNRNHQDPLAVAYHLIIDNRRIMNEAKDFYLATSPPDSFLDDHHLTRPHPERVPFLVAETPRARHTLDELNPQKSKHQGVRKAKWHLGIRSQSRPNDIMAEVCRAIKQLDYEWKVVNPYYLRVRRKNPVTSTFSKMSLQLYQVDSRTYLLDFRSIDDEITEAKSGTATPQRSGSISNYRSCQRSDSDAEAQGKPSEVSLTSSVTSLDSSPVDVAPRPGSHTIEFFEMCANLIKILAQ
T1 sequence (P80385 whole entry partner, the tested form may be a part): as the sequence (P80385 whole entry partner) above
T3 sequence (P80386 2-270 W100G/W133A): as the sequence (P80386 2-270) above, with W99G, W132A counted along it
T3 sequence (P54645 whole entry partner): as the sequence (P54645 whole entry partner) above
T3 sequence (P80385 whole entry partner): as the sequence (P80385 whole entry partner) above

Row | Molecule | inhibition of wild-type recombinant α1β1γ1 [1] | inhibition at concentrations up to 100 mM (native rat liver AMPK) | binding to the GBD (GBD) | Kd [2] | concentration that displaces the β1 GBD from glycogen (rat β1 GBD) | inhibition of W100G/W133A mutant [3] | competition with glycogen for binding to the GBD (rat β1 GBD; ref Polekhina et al. (2003, 2005))
1 | CO[C@H]1O[C@H](CO)[C@@H](O[C@H]2O[C@H](CO)[C@@H](O)[C@H](O)[C@H]2O)[C@H](O)[C@H]1O [Oligosaccharide 8, methyl α-maltoside] | not significant |  |  |  |  |  | 
2 | OC[C@H]1O[C@H](O[C@H]2[C@H](O)[C@@H](O)C(O)O[C@@H]2CO)[C@H](O)[C@@H](O)[C@@H]1O (mixture of isomers) [maltose] |  | did not cause any inhibition |  |  |  |  | 
3 | maltohexaose |  | almost no inhibition | could bind | 700 µM | greater than 1 mM |  | 
4 | OC[C@H]1O[C@@H]2O[C@H]3[C@H](O)[C@@H](O)[C@@H](O[C@H]4[C@H](O)[C@@H](O)[C@@H](O[C@H]5[C@H](O)[C@@H](O)[C@@H](O[C@H]6[C@H](O)[C@@H](O)[C@@H](O[C@H]7[C@H](O)[C@@H](O)[C@@H](O[C@H]8[C@H](O)[C@@H](O)[C@@H](O[C@H]1[C@H](O)[C@H]2O)O[C@@H]8CO)O[C@@H]7CO)O[C@@H]6CO)O[C@@H]5CO)O[C@@H]4CO)O[C@@H]3CO [β-cyclodextrin] |  |  |  | 300 µM |  | abolished | can compete
5 | maltoheptaose |  | almost no inhibition | could bind | 400 µM | greater than 1 mM |  | 
